Values quoted from earlier work as cited in patent US20250049743A1, “METHOD OF PRODUCING AN ORAL OSMOTIC PHARMACEUTICAL DELIVERY SYSTEM AND A PHARMACEUTICAL BATCH PRODUCED USING THE SAME” (United Therapeutics Corporation, priority 2023, published 2025).

Details: treprostinil as the free acid

In the case of `CCCCC[C@H](O)CC[C@@H]1[C@H]2Cc3cccc(OCC(=O)O)c3C[C@H]2C[C@H]1O` [treprostinil], the absolute oral bioavailability is given as “less than 10%”.
